Measured values published in patent US9868748B2, “Thiazolopyrrolidine inhibitors of ROR- γ” (Vitae Pharmaceuticals, Inc., priority 2013, dated 2018).
Like-named read-outs stand apart in the source and are kept apart here.

Tests used:
[1] = target: full-length RORγt in Jurkat cells (Homo sapiens (Human), UniProt P51449); assay: RORγt 5xRORE Assay in Jurkat Cells (Assay 2); type: cell-based; settings: Nanoluc luciferase reporter, 16-18 hrs
Experimental: [formula] RORγt 5xRORE Assay in Jurkat Cells (Assay 2)
Compounds of the present invention were tested for RORγ inverse agonist activity in a cell-based, transcriptional activity assay. Secreted Nanoluc® luciferase was used as a reporter for transcriptional activity of the full-length RORγt in Jurkat cells (ATCC, Cat. # TIB-152). A reporter plasmid was constructed by inserting 5 repeats of the ROR Response Element (RORE) […] (SEQ ID NO:1) into a commercially available promoterless plasmid pNL1.3[secNluc] (Promega, Cat. # N1021) using KpnI and HindIII restriction sites. The expression plasmid for RORγt was purchased (Geneocopoeia, Cat. # EX-T6988-M02). Jurkat cells (30 million cells) were transfected with 11 μg of EX-T6988-MO2 and 26 μg of the reporter plasmid in OptiMEM® media using Lipofectamine® LTX and Plus™ reagents (Life Technologies, Cat. #15338-100). After 5-6 h of incubation at 37° C./5% CO2, the cells were collected, resuspended in phenol-red free RPMI media containing 10% (v/v) delipidated FBS (Hyclone, Cat. # SH30855.03) and dispensed into 96-well clear bottom tissue culture plates (CoStar, Cat. #3603), at 80,000 cells per well. Tested compounds were added to the cells in the same media (final concentration of DMSO was 0.1% (v/v)), and the plates were incubated at 37° C./5% CO2 for 16-18 hrs. Luciferase activity in the conditioned supernatants was determined with NanoGlo® assay reagents (Promega, Cat. # N1130).

[2] = target: recombinant RORγ Ligand Binding Domain (LBD) protein (Homo sapiens (Human), UniProt P51449); assay: Radio-Ligand RORγ Binding Assay (Assay 1); settings: competition with 25-hydroxy [26,27-3H]-cholesterol, SPA, read-out: RORγ Binding Ki Range*
recombinant RORγ Ligand Binding Domain (LBD) protein, sequence (P51449 269-508): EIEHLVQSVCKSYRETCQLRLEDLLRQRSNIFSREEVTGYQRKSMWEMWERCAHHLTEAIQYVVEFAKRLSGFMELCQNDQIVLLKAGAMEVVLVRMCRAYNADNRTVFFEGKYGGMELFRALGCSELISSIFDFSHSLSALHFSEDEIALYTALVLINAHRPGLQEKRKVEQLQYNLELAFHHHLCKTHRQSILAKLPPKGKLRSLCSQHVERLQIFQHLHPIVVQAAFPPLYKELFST
Experimental: Radio-Ligand RORγ Binding Assay (Assay 1)
Compounds of the present invention were tested for ability to bind to RORγ in a cell-free competition assay with commercially available radio-ligand (RL), 25-hydroxy [26,27-^3H]— cholesterol (PerkinElmer, Cat. # NET674250UC), for a ligand binding site on a recombinant RORγ Ligand Binding Domain (LBD) protein expressed as a 6×His-Glutathione-S-Transferase (GST) fusion (“6×His” disclosed as SEQ ID NO: 2). The assay was performed in 96-well SPA plates (PerkinElmer, Cat. #1450-401) in 50 mM HEPES buffer, pH 7.4, containing 150 mM NaCl, 5 mM MgCl2, 10% (v/v) glycerol, 2 mM CHAPS, 0.5 mM β-octylglucopyranoside and 5 mM DTT. Tested compounds were dissolved in DMSO, and semi-log (3.162×) serial dilutions of the compounds were prepared in the same solvent. Two μL of the DMSO solutions were mixed with 28 μL of 8.6 nM 25-hydroxy [26,27-^3H]— cholesterol and 50 μL of 24 nM RORγ LBD. The plate was shaken at 700 rpm for 20 min and incubated for 10 min at rt, after which 40 μL of poly-Lys YSi SPA beads (PerkinElmer, Cat. # RPNQ0010) were added to achieve 50 μg of the beads per well. The plate was incubated on an orbital shaker for 20 min and then for 10 min without agitation at rt. SPA signal for tritium beta radiation was registered on PerkinElmer Microbeta plate reader. Percent inhibition values were calculated based on the high signal obtained with DMSO control and the low signal observed with 10 μM standard RORγ inverse agonist T0901317 (SigmaAldrich, Cat. # T2320). The percent inhibition vs. concentration data were fit into a four-parameter model, and […] values were calculated from the fit as the concentrations corresponding to the inflection points on the dose-response curves. Inhibitory constants (Ki) were calculated using the following equation, where [RL] is the concentration in the assay and KD is a dissociation constant of 25-hydroxy [26,27-^3H]-cholesterol: […]

[3] = Table 8, read-out: RORγt5X IC50 Range*
[4] = Table 9, read-out: RORγt5X IC50 Range*

full-length RORγt in Jurkat cells, sequence (P51449 other isoform, or with tags, fused parts or gaps): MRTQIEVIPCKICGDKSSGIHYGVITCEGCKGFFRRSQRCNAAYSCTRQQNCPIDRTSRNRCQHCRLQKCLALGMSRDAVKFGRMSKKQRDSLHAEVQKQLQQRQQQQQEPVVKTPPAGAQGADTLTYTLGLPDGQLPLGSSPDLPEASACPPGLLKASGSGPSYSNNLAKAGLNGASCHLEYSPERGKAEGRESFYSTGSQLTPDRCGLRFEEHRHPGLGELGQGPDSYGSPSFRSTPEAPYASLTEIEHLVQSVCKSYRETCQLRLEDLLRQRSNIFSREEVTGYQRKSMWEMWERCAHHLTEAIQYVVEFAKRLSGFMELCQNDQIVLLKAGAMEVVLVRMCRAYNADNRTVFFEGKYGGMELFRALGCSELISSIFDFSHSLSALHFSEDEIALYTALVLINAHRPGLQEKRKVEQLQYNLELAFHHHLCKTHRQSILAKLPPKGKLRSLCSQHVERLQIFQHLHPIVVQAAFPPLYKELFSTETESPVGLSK

| Ki ([2]; Table 9) [nM] | SMILES | also measured |
| --- | --- | --- |
|  | CC(C)[C@H]1c2nc(NC(=O)Cc3ccc(S(C)(=O)=O)cc3F)sc2CN1Cc1ccc(C#N)cc1 [I-M1, (S)—N-(5-(4-cyanobenzyl)-4-isopropyl-5,6-dihydro-4H-pyrrolo[3,4-d]thiazol-2-yl)-2-(2-fluoro-4-(methylsulfonyl)phenyl)acetamide] | IC50 [1, 3]: < 100 nM; Ki ([2]; Table 8): < 100 nM |
| < 100 | CCS(=O)(=O)c1ccc(CC(=O)Nc2nc3c(s2)C(C)N(Cc2ccc(C#N)cc2)[C@H]3C(C)C)cc1 (stereo partly shown) | IC50 [1, 4]: 100 to 1000 nM |
| < 100 | CCS(=O)(=O)c1ccc(CC(=O)Nc2nc3c(s2)CN(C[C@H]2CC[C@](C)(C#N)CC2)[C@H]3C(C)C)cc1 (single isomer, unassigned) | IC50 [1, 4]: > 1000 nM |
| < 100 | CCS(=O)(=O)c1ccc(CC(=O)Nc2nc3c(s2)CN(c2cnc(C(F)(F)F)cn2)[C@H]3C(C)C)cc1 | IC50 [1, 4]: > 1000 nM |
|  | CCS(=O)(=O)c1ccc(CC(=O)Nc2nc3c(s2)CN(Cc2ccc(C(F)(F)F)c(C)n2)[C@H]3C(C)C)cc1 [I-A33] | IC50 [1, 3]: < 100 nM; Ki ([2]; Table 8): < 100 nM |
| < 100 | CCS(=O)(=O)c1ccc(CC(=O)Nc2nc3c(s2)CN(Cc2ccc(C#N)cn2)[C@@]3(C)C(C)C)cc1 [drawing 270] | IC50 [1, 4]: < 100 nM |
|  | CCS(=O)(=O)c1ccc(CC(=O)Nc2nc3c(s2)CN([C@@H](C)c2ccc(Cl)cc2F)[C@H]3C(C)C)cc1 [I-A39] | IC50 [1, 3]: < 100 nM; Ki ([2]; Table 8): < 100 nM |
|  | CCS(=O)(=O)c1ccc(CC(=O)Nc2nc3c(s2)CN(Cc2ccc(OC(F)F)cc2)[C@H]3C(C)C)nc1 [I-C2] | IC50 [1, 3]: < 100 nM; Ki ([2]; Table 8): < 100 nM |
|  | CC(C)[C@H]1c2nc(NS(=O)(=O)c3ccc(CC(=O)O)cc3)sc2CN1Cc1ccc(C#N)c(F)c1 [I-D2, (S)-2-(4-(N-(5-(4-cyano-3-fluorobenzyl)-4-isopropyl-5,6-dihydro-4H-pyrrolo[3,4-d]thiazol-2-yl)sulfamoyl)phenyl)acetic acid] | IC50 [1, 3]: > 1000 nM; Ki ([2]; Table 8): < 100 nM |
| 100 to 1000 | CC1(C)c2nc(NC(=O)Cc3ccc(S(C)(=O)=O)cc3)sc2CN1c1nccc(C(F)(F)F)n1 | IC50 [1, 4]: > 1000 nM |
| < 100 | CCS(=O)(=O)c1ccc(CNC(=O)c2nc3c(s2)CN(C[C@H]2CC[C@H](C(F)(F)F)CC2)[C@H]3C(C)C)cc1 (relative stereo) | IC50 [1, 4]: 100 to 1000 nM |
| < 100 | CCS(=O)(=O)c1ccc(CNC(=O)c2nc3c(s2)CN(Cc2ccc(C(F)F)cc2)[C@H]3C(C)C)nc1 | IC50 [1, 4]: < 100 nM |
| 100 to 1000 | CC(C)[C@@H]1c2nc(NC(=O)Cc3ccc(S(C)(=O)=O)cc3)sc2CN1C(C)c1ccc(C#N)cc1 (stereo partly shown) |  |
| < 100 | CCS(=O)(=O)c1ccc(CC(=O)Nc2nc3c(s2)CN(CC2CCC(F)(F)CC2)[C@H]3C(C)C)cc1 |  |
|  | CCS(=O)(=O)c1ccc(CC(=O)Nc2nc3c(s2)CN(C[C@@H]2CC[C@@H](C(F)(F)F)N(C)C2)[C@H]3C(C)C)cc1 [I-A30] | IC50 [1, 3]: < 100 nM |
| < 100 | COc1cc(CN2Cc3sc(NC(=O)Cc4ccc(C#N)cc4)nc3[C@@H]2C(C)C)ccc1C#N |  |
| 100 to 1000 | CCS(=O)(=O)c1ccc(CC(=O)Nc2nc3c(s2)CN(C[C@H]2C[C@H](C(N)=O)C2)[C@H]3C(C)C)cc1 (relative stereo) |  |
| > 1000 | CCS(=O)(=O)c1cnc(CC(=O)Nc2nc3c(s2)CN(Cc2ccc(C#N)cc2)[C@@H]3C(C)C)nc1 |  |
| 100 to 1000 | CC(C)[C@@H]1c2nc(NC(=O)Cc3ccc(S(C)(=O)=O)cc3)sc2CN1Cc1ccc(C#N)cc1 |  |
| 100 to 1000 | CC(C)[C@H]1c2nc(NC(=O)Cc3ccc(S(C)(=O)=O)cc3)sc2CN1c1nc(Cl)ncc1C#N |  |
| 100 to 1000 | Cc1ccc(CN2Cc3sc(NC(=O)Cc4ccc(S(C)(=O)=O)cc4)nc3[C@H]2C(C)C)cc1 |  |
| 100 to 1000 | CCS(=O)(=O)c1ccc(CC(=O)Nc2nc3c(s2)CN(C[C@H]2CC[C@H](C(=O)O)CC2)[C@H]3C(C)C)cc1 |  |
| 100 to 1000 | CCS(=O)(=O)c1ccc(CC(=O)Nc2nc3c(s2)CN(C[C@@H]2CC[C@@H](C(F)(F)F)NC2)[C@H]3C(C)C)nc1 (single isomer, unassigned) |  |
| > 1000 | CCS(=O)(=O)c1ccc(CC(=O)Nc2nc3c(s2)CN(c2ncc(-c4ccc(=O)n(C)c4)s2)[C@H]3C(C)C)nc1 |  |
| 100 to 1000 | CC1(C)c2nc(NC(=O)Cc3ccc(S(C)(=O)=O)cc3)sc2CN1c1ncc(C(F)(F)F)cn1 |  |

| Ki ([2]; Table 9) [nM] | SMILES | also measured |
| --- | --- | --- |
| 100 to 1000 | CC(C)[C@H]1c2nc(NC(=O)Cc3ccc(S(C)(=O)=O)cc3F)sc2CN1Cc1cnc(C(F)(F)F)nc1 |  |
| 100 to 1000 | CCS(=O)(=O)c1ccc(CC(=O)Nc2nc3c(s2)CN(C(=O)Cc2ccccc2)[C@@H]3C(C)C)cc1 |  |
|  | CCS(=O)(=O)c1ccc(CC(=O)Nc2nc3c(s2)CN(Cc2ccc4c(c2)OC(F)(F)O4)[C@H]3C(C)C)nc1 [I-L3] | IC50 [1, 3]: < 100 nM |
| > 1000 | CC(C)[C@H]1c2nc(C(=O)NCc3ccc(S(C)(=O)=O)cc3)sc2CN1Cc1ccn(C)c(=O)c1 |  |
| 100 to 1000 | CC[C@@H]1c2nc(NC(=O)Cc3ccc(S(C)(=O)=O)cc3)sc2CN1Cc1ccc(OC(F)(F)F)nc1 |  |
| 100 to 1000 | CCS(=O)(=O)c1ccc(CC(=O)Nc2nc3c(s2)CN([C@@H](C)Cc2ccccc2)[C@@H]3C(C)C)cc1 |  |
| > 1000 | CCS(=O)(=O)c1cnc(CC(=O)Nc2nc3c(s2)CN(Cc2ccc(C(F)(F)F)cc2)[C@@H]3C(C)C)nc1 |  |
| > 1000 | COC(=O)c1cnc(N2Cc3sc(NC(=O)Cc4ccc(S(C)(=O)=O)cc4)nc3[C@@H]2C(C)C)nc1 |  |
| > 1000 | COC(=O)c1coc(CN2Cc3sc(NC(=O)Cc4ccc(S(C)(=O)=O)cc4)nc3[C@H]2C(C)C)n1 |  |
| 100 to 1000 | CC(C)[C@@H]1c2nc(NC(=O)Cc3ccc(S(C)(=O)=O)cc3)sc2CN1[C@@H](C)c1ccc(C(F)(F)F)cc1 (single isomer, unassigned) |  |
| 100 to 1000 | CC(C)[C@H]1c2nc(NC(=O)Cc3ccc(S(C)(=O)=O)cc3)sc2CN1Cc1ccn(C2CC2)c(=O)c1 |  |
| 100 to 1000 | CCS(=O)(=O)c1ccc(CC(=O)Nc2nc3c(s2)CN(c2ncc(C(F)(F)F)cn2)C3(C)C)cc1 |  |
| 100 to 1000 | CC(C)[C@H]1c2nc(NC(=O)Cc3ccc(S(C)(=O)=O)cc3)sc2CN1Cc1ncc(Cl)cc1F |  |
| 100 to 1000 | CC(C)[C@H]1c2nc(NC(=O)Cc3ccc(S(C)(=O)=O)cc3)sc2CN1Cc1ncc(Cl)cn1 |  |
| 100 to 1000 | CC(C)[C@H]1c2nc(C(=O)NCc3ccc(S(C)(=O)=O)cc3)sc2CN1Cc1ccc2nn[nH]c2c1 |  |
| 100 to 1000 | CCS(=O)(=O)c1ccc(CNC(=O)c2nc3c(s2)CN(Cc2ccn(C(F)F)c(=O)c2)[C@H]3C(C)C)cc1 |  |
| 100 to 1000 | CC(C)[C@H]1c2nc(NC(=O)CC3CCS(=O)(=O)CC3)sc2CN1Cc1ccc(Cl)cc1 |  |
| 100 to 1000 | CCS(=O)(=O)c1ccc(CNC(=O)c2nc3c(s2)CN(c2nccc(C(F)(F)F)n2)[C@H]3C(C)C)cc1 |  |
| 100 to 1000 | CCS(=O)(=O)c1ccc(CC(=O)Nc2nc3c(s2)CN(Cc2ccc(C(F)(F)F)cc2)[C@@]3(C)C(C)C)cc1 |  |
| 100 to 1000 | CCS(=O)(=O)c1ccc(CC(=O)Nc2nc3c(s2)CN(Cc2ccc(S(C)(=O)=O)cc2)[C@@H]3C(C)C)cc1 |  |
| 100 to 1000 | CCS(=O)(=O)c1ccc(CC(=O)Nc2nc3c(s2)CN(Cc2cnc(N)nc2)[C@H]3C(C)C)cc1 |  |
| > 1000 | Cc1cc(C(F)(F)F)nc(N2Cc3sc(Cc4ccc(C#N)cc4C)nc3[C@H]2C(C)C)n1 |  |
| 100 to 1000 | Cc1nnc(-c2ccc(CC(=O)Nc3nc4c(s3)CN(Cc3ccc(Cl)cc3)[C@H]4C(C)C)cc2)o1 |  |
| > 1000 | CCOC(=O)c1cnc(N2Cc3sc(C(=O)NCc4ccc(S(=O)(=O)CC)cc4)nc3[C@@H]2C(C)C)nc1C(F)(F)F |  |
